Experiments:
[1] = target: Cyclin-dependent kinase 16 (Homo sapiens) (UniProt Q00536); details: Compound concentration 1000.0 nM
[2] = target: Tyrosine-protein kinase Lck (Homo sapiens) (UniProt P06239); details: Compound concentration 1000.0 nM
[3] = target: Cyclin-dependent kinase 2 (Homo sapiens) (UniProt P24941); details: Compound concentration 1000.0 nM
[4] = target: Protein-tyrosine kinase 6 (Homo sapiens) (UniProt Q13882); details: Compound concentration 1000.0 nM
[5] = target: Serine/threonine-protein kinase NIM1 (Homo sapiens) (UniProt Q8IY84); details: Compound concentration 1000.0 nM
[6] = target: Serine/threonine-protein kinase PAK 4 (Homo sapiens) (UniProt O96013); details: Compound concentration 1000.0 nM
[7] = target: Wee1-like protein kinase (Homo sapiens) (UniProt P30291); details: Compound concentration 1000.0 nM
[8] = target: Serine/threonine-protein kinase PAK 6 (Homo sapiens) (UniProt Q9NQU5); details: Compound concentration 1000.0 nM
[9] = target: Phosphatidylinositol 3-kinase catalytic subunit type 3 (Homo sapiens) (UniProt Q8NEB9); details: Compound concentration 1000.0 nM
Chain of Phosphatidylinositol 3-kinase catalytic subunit type 3 (Homo sapiens) (Q8NEB9 whole entry): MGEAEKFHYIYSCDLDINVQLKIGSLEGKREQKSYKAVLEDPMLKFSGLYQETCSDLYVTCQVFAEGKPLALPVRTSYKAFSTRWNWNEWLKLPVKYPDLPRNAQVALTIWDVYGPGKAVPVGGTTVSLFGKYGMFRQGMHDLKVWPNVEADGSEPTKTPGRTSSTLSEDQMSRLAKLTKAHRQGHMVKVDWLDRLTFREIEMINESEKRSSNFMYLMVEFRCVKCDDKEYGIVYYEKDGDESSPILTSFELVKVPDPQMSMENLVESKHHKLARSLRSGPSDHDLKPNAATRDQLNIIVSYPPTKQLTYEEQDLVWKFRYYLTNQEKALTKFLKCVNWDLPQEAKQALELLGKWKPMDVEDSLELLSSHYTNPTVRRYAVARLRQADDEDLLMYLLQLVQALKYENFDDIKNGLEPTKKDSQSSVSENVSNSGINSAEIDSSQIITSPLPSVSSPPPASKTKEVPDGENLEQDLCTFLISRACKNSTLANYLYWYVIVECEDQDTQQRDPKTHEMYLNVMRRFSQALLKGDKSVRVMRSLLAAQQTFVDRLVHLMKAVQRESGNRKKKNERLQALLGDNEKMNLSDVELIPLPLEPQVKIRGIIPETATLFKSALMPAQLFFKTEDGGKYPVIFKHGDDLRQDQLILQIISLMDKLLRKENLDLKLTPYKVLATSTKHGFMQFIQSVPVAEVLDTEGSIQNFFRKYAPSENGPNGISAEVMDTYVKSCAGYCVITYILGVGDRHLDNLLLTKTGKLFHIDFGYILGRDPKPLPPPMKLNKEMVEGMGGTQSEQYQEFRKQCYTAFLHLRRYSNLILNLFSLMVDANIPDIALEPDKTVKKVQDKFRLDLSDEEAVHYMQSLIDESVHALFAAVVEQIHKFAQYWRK

[10] = target: Serine/threonine-protein kinase 16 (Homo sapiens) (UniProt O75716); details: Compound concentration 1000.0 nM
[11] = target: Myosin light chain kinase 2, skeletal/cardiac muscle (Homo sapiens) (UniProt Q9H1R3); details: Compound concentration 1000.0 nM
[12] = target: Proto-oncogene tyrosine-protein kinase ROS (Homo sapiens) (UniProt P08922); details: Compound concentration 1000.0 nM
[13] = target: LIM domain kinase 2 (Homo sapiens) (UniProt P53671); details: Compound concentration 1000.0 nM
[14] = system: Receptor-type tyrosine-protein kinase FLT3 (Homo sapiens), P36888 [D835V]; details: Compound concentration 1000.0 nM
[15] = target: Vascular endothelial growth factor receptor 2 (Homo sapiens) (UniProt P35968); details: Compound concentration 1000.0 nM
[16] = target: Interleukin-1 receptor-associated kinase 1 (Homo sapiens) (UniProt P51617); details: Compound concentration 1000.0 nM
[17] = target: Serine/threonine-protein kinase 4 (Homo sapiens) (UniProt Q13043); details: Compound concentration 1000.0 nM
[18] = target: Mitogen-activated protein kinase kinase kinase kinase 2 (Homo sapiens) (UniProt Q12851); details: Compound concentration 1000.0 nM
[19] = target: Non-receptor tyrosine-protein kinase TYK2 (Homo sapiens) (UniProt P29597); details: Compound concentration 1000.0 nM
[20] = target: Bone morphogenetic protein receptor type-1B (Homo sapiens) (UniProt O00238); details: Compound concentration 1000.0 nM
Chain of Bone morphogenetic protein receptor type-1B (Homo sapiens) (O00238 whole entry): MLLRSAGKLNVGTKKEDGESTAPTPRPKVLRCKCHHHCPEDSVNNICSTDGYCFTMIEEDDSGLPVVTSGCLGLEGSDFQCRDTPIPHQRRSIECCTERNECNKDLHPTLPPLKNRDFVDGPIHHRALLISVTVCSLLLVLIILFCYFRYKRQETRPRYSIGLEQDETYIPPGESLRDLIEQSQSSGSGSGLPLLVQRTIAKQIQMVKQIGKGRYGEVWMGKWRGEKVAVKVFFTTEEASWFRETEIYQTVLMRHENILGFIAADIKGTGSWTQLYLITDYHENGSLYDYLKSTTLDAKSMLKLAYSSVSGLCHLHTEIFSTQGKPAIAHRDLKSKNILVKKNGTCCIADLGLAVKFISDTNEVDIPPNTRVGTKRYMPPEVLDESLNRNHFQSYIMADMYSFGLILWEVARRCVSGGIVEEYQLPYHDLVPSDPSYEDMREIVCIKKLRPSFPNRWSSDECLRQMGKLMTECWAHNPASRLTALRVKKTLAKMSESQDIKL

[21] = target: Dual specificity protein kinase TTK (Homo sapiens) (UniProt P33981); details: Compound concentration 1000.0 nM
[22] = target: Serine/threonine-protein kinase Nek10 (Homo sapiens) (UniProt Q6ZWH5); details: Compound concentration 1000.0 nM
[23] = target: Death-associated protein kinase 1 (Homo sapiens) (UniProt P53355); details: Compound concentration 1000.0 nM
[24] = target: Mitogen-activated protein kinase 10 (Homo sapiens) (UniProt P53779); details: Compound concentration 1000.0 nM
[25] = target: TGF-beta receptor type-1 (Homo sapiens) (UniProt P36897); details: Compound concentration 1000.0 nM
[26] = target: Cyclin-dependent kinase 9 (Homo sapiens) (UniProt P50750); details: Compound concentration 1000.0 nM
[27] = system: Fibroblast growth factor receptor 3 (Homo sapiens), P22607 [G697C]; details: Compound concentration 1000.0 nM
[28] = target: Receptor-interacting serine/threonine-protein kinase 2 (Homo sapiens) (UniProt O43353); details: Compound concentration 1000.0 nM
[29] = target: Serine/threonine-protein kinase ICK (Homo sapiens) (UniProt Q9UPZ9); details: Compound concentration 1000.0 nM
[30] = target: Cyclin-dependent kinase 4 (Homo sapiens) (UniProt P11802); details: Compound concentration 1000.0 nM
[31] = target: Serine/threonine-protein kinase PAK 1 (Homo sapiens) (UniProt Q13153); details: Compound concentration 1000.0 nM
[32] = target: Calcium/calmodulin-dependent protein kinase type 1 (Homo sapiens) (UniProt Q14012); details: Compound concentration 1000.0 nM
[33] = target: Tyrosine-protein kinase ABL1 (Homo sapiens) (UniProt P00519); details: Compound concentration 1000.0 nM
[34] = target: Macrophage colony-stimulating factor 1 receptor (Homo sapiens) (UniProt P07333); details: Compound concentration 1000.0 nM
[35] = target: Casein kinase I isoform gamma-1 (Homo sapiens) (UniProt Q9HCP0); details: Compound concentration 1000.0 nM
[36] = target: Casein kinase I isoform gamma-2 (Homo sapiens) (UniProt P78368); details: Compound concentration 1000.0 nM
[37] = system: Tyrosine-protein kinase ABL1 (Homo sapiens), P00519 [H396P]; details: Compound concentration 1000.0 nM
[38] = target: Serine/threonine-protein kinase 36 (Homo sapiens) (UniProt Q9NRP7); details: Compound concentration 1000.0 nM
Chain of Serine/threonine-protein kinase 36 (Homo sapiens) (Q9NRP7 whole entry): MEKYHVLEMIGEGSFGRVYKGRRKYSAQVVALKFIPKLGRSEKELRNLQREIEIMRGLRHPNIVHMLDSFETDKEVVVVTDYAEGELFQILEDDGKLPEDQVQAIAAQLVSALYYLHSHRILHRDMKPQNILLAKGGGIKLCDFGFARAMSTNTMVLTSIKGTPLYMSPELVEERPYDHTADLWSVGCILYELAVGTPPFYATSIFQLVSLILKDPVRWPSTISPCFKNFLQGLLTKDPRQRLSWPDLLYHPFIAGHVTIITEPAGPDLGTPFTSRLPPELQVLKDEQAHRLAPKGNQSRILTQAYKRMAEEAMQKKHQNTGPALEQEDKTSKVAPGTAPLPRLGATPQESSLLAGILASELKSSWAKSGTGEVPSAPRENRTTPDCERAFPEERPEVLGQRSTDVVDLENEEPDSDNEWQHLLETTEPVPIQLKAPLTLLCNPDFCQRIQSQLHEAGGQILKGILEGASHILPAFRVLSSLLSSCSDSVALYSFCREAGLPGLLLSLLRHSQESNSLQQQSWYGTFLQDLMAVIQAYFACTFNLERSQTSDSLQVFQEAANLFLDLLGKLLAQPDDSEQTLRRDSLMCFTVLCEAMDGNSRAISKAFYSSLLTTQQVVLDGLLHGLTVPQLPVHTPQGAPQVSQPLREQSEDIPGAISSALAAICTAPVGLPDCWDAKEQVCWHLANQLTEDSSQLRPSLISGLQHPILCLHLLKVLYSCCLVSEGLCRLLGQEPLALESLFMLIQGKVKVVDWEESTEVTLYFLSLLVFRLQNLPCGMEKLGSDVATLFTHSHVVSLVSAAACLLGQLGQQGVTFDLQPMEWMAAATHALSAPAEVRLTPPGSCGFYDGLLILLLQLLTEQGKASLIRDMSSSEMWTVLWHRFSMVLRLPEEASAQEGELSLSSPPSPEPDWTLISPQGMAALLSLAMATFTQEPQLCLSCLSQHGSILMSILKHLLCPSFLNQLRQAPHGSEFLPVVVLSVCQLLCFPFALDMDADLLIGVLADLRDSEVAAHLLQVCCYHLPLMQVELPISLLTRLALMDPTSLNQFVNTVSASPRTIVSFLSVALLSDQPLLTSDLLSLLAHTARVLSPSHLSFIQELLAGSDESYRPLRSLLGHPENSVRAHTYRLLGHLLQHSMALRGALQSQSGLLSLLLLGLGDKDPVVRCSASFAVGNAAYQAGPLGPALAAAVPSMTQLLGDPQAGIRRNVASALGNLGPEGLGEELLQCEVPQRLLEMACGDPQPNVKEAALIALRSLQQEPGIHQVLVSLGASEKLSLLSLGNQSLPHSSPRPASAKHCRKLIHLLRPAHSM

[39] = target: Non-receptor tyrosine-protein kinase TNK1 (Homo sapiens) (UniProt Q13470); details: Compound concentration 1000.0 nM
[40] = target: Serine/threonine-protein kinase PLK3 (Homo sapiens) (UniProt Q9H4B4); details: Compound concentration 1000.0 nM
[41] = target: Tyrosine-protein kinase ABL1 (Homo sapiens) (UniProt P00519); details: Compound concentration 1000.0 nM; remark: listed apart in the source
[42] = system: eIF-2-alpha kinase GCN2 (Homo sapiens), Q9P2K8 [S808G]; details: Compound concentration 1000.0 nM
Chain of eIF-2-alpha kinase GCN2 (Homo sapiens), Q9P2K8 [S808G] (Q9P2K8 whole entry S808G): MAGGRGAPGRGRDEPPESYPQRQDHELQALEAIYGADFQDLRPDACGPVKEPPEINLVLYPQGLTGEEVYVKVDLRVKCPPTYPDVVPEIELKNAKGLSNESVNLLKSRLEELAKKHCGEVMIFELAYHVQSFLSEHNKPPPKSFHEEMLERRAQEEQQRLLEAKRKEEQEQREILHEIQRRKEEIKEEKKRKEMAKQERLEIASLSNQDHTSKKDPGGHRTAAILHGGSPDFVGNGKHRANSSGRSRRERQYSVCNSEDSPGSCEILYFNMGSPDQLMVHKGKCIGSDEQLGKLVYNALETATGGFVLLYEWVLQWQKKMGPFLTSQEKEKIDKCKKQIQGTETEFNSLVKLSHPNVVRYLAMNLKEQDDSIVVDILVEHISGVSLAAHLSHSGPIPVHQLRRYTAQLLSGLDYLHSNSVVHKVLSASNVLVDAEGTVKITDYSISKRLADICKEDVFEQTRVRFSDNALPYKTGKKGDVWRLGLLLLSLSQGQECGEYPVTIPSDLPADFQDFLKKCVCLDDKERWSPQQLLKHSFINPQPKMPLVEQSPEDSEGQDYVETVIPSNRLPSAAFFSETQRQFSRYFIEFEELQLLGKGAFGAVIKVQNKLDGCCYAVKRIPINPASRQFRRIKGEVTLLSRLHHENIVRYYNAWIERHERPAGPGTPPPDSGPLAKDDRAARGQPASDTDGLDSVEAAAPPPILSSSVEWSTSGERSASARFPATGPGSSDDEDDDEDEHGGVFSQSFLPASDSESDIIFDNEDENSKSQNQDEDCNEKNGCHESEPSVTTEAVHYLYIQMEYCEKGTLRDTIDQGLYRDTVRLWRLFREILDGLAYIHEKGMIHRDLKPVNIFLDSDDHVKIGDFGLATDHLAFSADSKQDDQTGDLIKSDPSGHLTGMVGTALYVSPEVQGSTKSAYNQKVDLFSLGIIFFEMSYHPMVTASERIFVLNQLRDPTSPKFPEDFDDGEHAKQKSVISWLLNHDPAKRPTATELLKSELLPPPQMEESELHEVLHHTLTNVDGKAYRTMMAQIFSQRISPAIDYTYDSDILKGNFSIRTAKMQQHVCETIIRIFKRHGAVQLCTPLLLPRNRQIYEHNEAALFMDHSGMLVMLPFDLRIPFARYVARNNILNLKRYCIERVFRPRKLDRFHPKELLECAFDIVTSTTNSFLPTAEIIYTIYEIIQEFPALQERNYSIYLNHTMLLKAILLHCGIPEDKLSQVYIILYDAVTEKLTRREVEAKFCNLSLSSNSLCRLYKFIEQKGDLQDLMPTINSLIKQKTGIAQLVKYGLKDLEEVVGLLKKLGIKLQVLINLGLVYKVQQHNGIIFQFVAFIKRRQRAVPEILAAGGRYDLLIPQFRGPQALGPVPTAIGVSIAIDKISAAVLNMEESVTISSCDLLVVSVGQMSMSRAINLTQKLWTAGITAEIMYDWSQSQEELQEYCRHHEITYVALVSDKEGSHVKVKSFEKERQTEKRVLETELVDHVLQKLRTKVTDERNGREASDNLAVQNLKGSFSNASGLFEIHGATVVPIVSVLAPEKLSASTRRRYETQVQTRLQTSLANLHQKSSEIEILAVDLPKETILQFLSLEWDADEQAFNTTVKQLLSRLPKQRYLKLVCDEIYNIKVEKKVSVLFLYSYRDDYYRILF

[43] = target: Serine/threonine-protein kinase Nek1 (Homo sapiens) (UniProt Q96PY6); details: Compound concentration 1000.0 nM
[44] = target: 5-hydroxytryptamine receptor 7 (Homo sapiens) (UniProt P34969); details: Compound concentration 10.0 uM
Chain of 5-hydroxytryptamine receptor 7 (Homo sapiens) (P34969 whole entry): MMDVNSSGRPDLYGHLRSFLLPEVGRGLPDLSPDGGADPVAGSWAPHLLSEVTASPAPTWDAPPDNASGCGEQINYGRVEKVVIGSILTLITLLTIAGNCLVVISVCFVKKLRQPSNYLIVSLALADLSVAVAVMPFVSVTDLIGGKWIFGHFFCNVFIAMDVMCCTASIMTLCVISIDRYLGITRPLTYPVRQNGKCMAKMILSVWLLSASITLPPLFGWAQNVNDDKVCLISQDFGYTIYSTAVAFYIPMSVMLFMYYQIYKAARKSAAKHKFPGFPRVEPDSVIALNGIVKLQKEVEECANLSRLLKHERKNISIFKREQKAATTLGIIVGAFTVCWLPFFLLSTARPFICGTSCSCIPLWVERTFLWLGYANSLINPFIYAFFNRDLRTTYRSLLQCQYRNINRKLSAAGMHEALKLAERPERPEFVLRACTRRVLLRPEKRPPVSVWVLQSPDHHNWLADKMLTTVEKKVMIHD

[45] = target: Serine/threonine-protein kinase N1 (Homo sapiens) (UniProt Q16512); details: Compound concentration 1000.0 nM

CS(=O)(=O)c1cc(C2(NC(=O)c3cncc4c3cnn4-c3ccc(F)cc3)CC2)ccn1 [BI 639667]
residual activity [1]: 94%
residual activity [2]: 100%
residual activity [3]: 94%
residual activity [4]: 80%
residual activity [5]: 56%
residual activity [6]: 100%
residual activity [7]: 100%
residual activity [8]: 96%
residual activity [9]: 86%
residual activity [10]: 93%
residual activity [11]: 100%
residual activity [12]: 100%
residual activity [13]: 100%
residual activity [14]: 100%
residual activity [15]: 77%
residual activity [16]: 87%
residual activity [17]: 77%
residual activity [18]: 100%
residual activity [19]: 73%
residual activity [20]: 82%
residual activity [21]: 90%
residual activity [22]: 97%
residual activity [23]: 83%
residual activity [24]: 100%
residual activity [25]: 100%
residual activity [26]: 91%
residual activity [27]: 91%
residual activity [28]: 53%
residual activity [29]: 100%
residual activity [30]: 83%
residual activity [31]: 100%
residual activity [32]: 65%
residual activity [33]: 71%
residual activity [34]: 100%
residual activity [35]: 100%
residual activity [36]: 100%
residual activity [37]: 100%
residual activity [38]: 100%
residual activity [39]: 80%
residual activity [40]: 68%
residual activity [41]: 86%
residual activity [42]: 91%
residual activity [43]: 45%
inhibition [44]: 10.5%
residual activity [45]: 100%

CS(=O)(=O)NCC[C@H](NC(=O)c1cncc2c1cnn2-c1ccc(F)cc1)c1ccnc(S(C)(=O)=O)c1 [BI 9307]
residual activity [1]: 100%
residual activity [2]: 100%
residual activity [3]: 100%
residual activity [4]: 96%
residual activity [5]: 100%
residual activity [6]: 100%
residual activity [7]: 99%
residual activity [8]: 100%
residual activity [9]: 100%
residual activity [10]: 99%
residual activity [11]: 93%
residual activity [12]: 94%
residual activity [13]: 100%
residual activity [14]: 100%
residual activity [15]: 100%
residual activity [16]: 100%
residual activity [17]: 100%
residual activity [18]: 91%
residual activity [19]: 100%
residual activity [20]: 100%
residual activity [21]: 91%
residual activity [22]: 100%
residual activity [23]: 100%
residual activity [24]: 100%
residual activity [25]: 100%
residual activity [26]: 100%
residual activity [27]: 82%
residual activity [28]: 100%
residual activity [29]: 100%
residual activity [30]: 100%
residual activity [31]: 88%
residual activity [32]: 94%
residual activity [33]: 100%
residual activity [34]: 100%
residual activity [35]: 91%
residual activity [36]: 89%
residual activity [37]: 97%
residual activity [38]: 100%
residual activity [39]: 100%
residual activity [40]: 100%
residual activity [41]: 90%
residual activity [42]: 100%
residual activity [43]: 45%
inhibition [44]: 4.81%
residual activity [45]: 100%
